Source: patent US20200316087A1, “NOVEL COMBINATION THERAPY FOR ANXIETY DISORDERS, EPILEPSY, AND PAIN” (priority 2017, published 2020)

Legend:
[1] = test system: CFA-induced mechanical hyperalgesia; assay: Complete Freund's adjuvant inflammatory pain, von Frey filament test; format: in vivo, rats
Description: Complete Freund's adjuvant (CFA) contains Mycobacterium butyricum, inducing inflammation and an increase in paw thickness. 0.1 mL of CFA was injected in the right hind paw of Sprague Dawley male rats under isoflurane anaesthesia. Mechanical hyperalgesia may be measured 2-3 days after CFA treatment. Rats (n=6) are placed in elevated boxes with a mesh floor. Von Frey filaments (expressed in g) are applied perpendicularly to the hindpaws, starting with the lowest filament (1.4 g) then increased until hindpaw withdrawal is observed. After each measurement, rats receive the next dose of drug (every 20 min) until the maximum threshold (26 g) is observed. For the antagonist study, rats are pretreated with the benzodiazepine site antagonist (10 min) and then receive the next dose of drug (every 20 min) until the pre-CFA threshold was observed.
3PBC.HCl was dissolved in a mixture containing 10% ethanol, 50% propylene glycol, and 40% sterile water. BCCt was dissolved in propylene glycol and then heated in a water bath up to 70° C. Midazolam (Akorn, Inc.) was dissolved in 0.9% saline. Doses were expressed as the weight of the drug in milligrams per kilogram of body weight and drugs were administered intraperitoneally.
Starting 2 days after CFA treatment, mechanical hyperalgesia was measured on days 0, 4, and 8. On days 1-3 and 5-7 rats were pretreated with either 3PBC.HCl (5.6 mg/kg), β-carboline-3-carboxylate-t-butyl ester (BCCt) (3.2 mg/kg) or saline twice a day (a.m. injections (9:00-10:30) and p.m. injections (5:00-6:30)) in their home cages. Rats were treated with midazolam (5.6 mg/kg) immediately after pretreatment of 3PBC.HCl, BCCt, or saline. On days 0 and 4, rats only received p.m. injections due to the mechanical hyperalgesia test done in the a.m.
The anti-hyperalgesic effects of midazolam were quantified for each animal as percent maximal possible effect (MPE) for each drug dose by using the following formula: percent MPE=[(post-drug value for a behavioral response (g)−pre-drug value for a behavioral response)/(pre-CFA value-pre-drug value for a behavioral response)×100.

[2] = test system: motor performance on an inverted screen; assay: Rat inverted screen test (motor impairment); settings: rats
Excerpt: The motor effects of Diazepam and KRM-II-81 were studied on the inverted screen. The inverted screen test is used to measure whether or not a test compound induces muscle relaxation. When a test subject is placed on a wire screen which is then inverted, the reaction is to climb to the opposite side so they are no longer hanging upside down.
Male, Sprague Dawley rats (Harlan Sprague Dawley, Indianapolis, Ind.) were used and weighed 90-110 g when evaluated in experiments. […] Rats were placed onto the top of a wire screen, which was then inverted so that the rats were hanging upside down.
Male Sprague-Dawley rats (n=5) were dosed i.p. (vehicle=1% carboxymethyl cellulose) with diazepam (3, 10, or 30 mg/kg), KRM-II-81 (10, 30, or 60 mg/kg) or HZ-166 (30 mg/kg) 30 minutes prior to testing. Rats were placed onto the top of a wire screen, which was then inverted so that the rats were hanging upside down. […] Results were analyzed using ANOVA (Dunnett's test: *P<0.05).
(§1) For the in vivo assays, minimal effective doses (MED) were calculated in mg/kg. MED was defined as the lowest dose administered that produced statistically significant protection compared to vehicle control in the anticonvulsant assays. The MED, or minimal toxic dose (MTD) for motor impairment, was the minimal dose required to produce statistically-significant impairment in motor performance. Doses tested are shown in the figures and tables and are generally dosed in ½ log increments. The protective index (PT) was calculated at the MTD/MED.

[3] = test system: seizures in amygdala kindled rats; assay: Basolateral amygdala kindling; format: in vivo
Description: Seizure kindling models evaluate effects of drugs on the sensitization of the nervous system to seizure induction. In this test, drugs were evaluated for their ability to impact seizure parameters in rats that were fully kindled by daily electrical stimulation of their amygdala. Valproic acid was used as a positive control. Experiments were conducted using the general procedures of Zwart et al. (J. Pharmacol. Exp. Ther., 2014, 351:124-133). A bipolar electrode for electrical stimulation and EEG recording was stereotaxically implanted into one hemisphere of the basolateral amygdala (AP −2.2, ML −4.8, DV −8.5 mm, relative to bregma) of male Wistar rats. After post-operative recovery, electrical kindling begins, where a subthreshold constant current (400 μA, 1 ms, monophasic square-wave pulses, 60 Hz for 1 sec) is given once a day Monday-Friday for about 4-6 weeks until a rat is fully kindled. A fully kindled rat has experienced 10 consecutive stage 5 seizures or 10 of its last 12 were stage 5 according to the Racine Scale.
Twelve fully kindled rats were assigned to this study, and eight rats were selected and randomized to initial compound treatment groups from baseline after discharge threshold (ADT), seizure severity score, and after discharge duration (ADD). […] On test day, rats were dosed 30 min prior to beginning stimulation. After the pre-treatment, rats were stimulated using an ascending staircase sequence beginning at 10 μA and increasing in log unit steps of 10, 16, 25, 40, 65, 100, 160, 250, and 400 μA. Animals were stimulated until they were assigned a Seizure Severity Score for a visually observably seizure or they reached the 400 μA threshold limit. ADD was determined following testing. ADT was the current that induced a seizure; measurements were scale-adjusted to capture the stimulation scale change required to observe a seizure from the previous baseline to the ADT scored on test day. […] The average scale adjusted ADT was approximately 0.63 μA in vehicle treated rats.
Racine score of behavioral response to stimulation: 0=no behavioral response; 1=immobility, staring and/or facial clonus; 2=head nodding, jaw clonus, and/or tongue protrusion; 3=unilateral forelimb clonus; 4=bilateral forelimb clonus and/or rearing; 5=bilateral forelimb clonus with rearing and loss of balance.
After-Discharge Duration (ADD) is the duration of the first after-discharge.
ADT, ADD, and severity scores were analyzed by ANOVA. Seizure severity data was also analyzed by the nonparametric Skillings-Mack test, a generalization of the Friedman test for one-way repeated measures designs. Posthoc tests when reported were either by Dunnett's method (seizure severity) or using Wilcoxon sign rank tests (ADT and ADD). Valproic acid, used as a positive control was not used in ANOVA calculations.

PTZ-induced clonus = assay: Pentylenetetrazole (PTZ, 35 mg/kg s.c.)-induced clonic convulsions; format: in vivo; settings: rats
Description: After the inverted screen test, the rats were dosed with pentylenetetrazole (PTZ)(35 mg/kg, s.c.) in a volume of 1 ml/kg and placed in an observation cage (40.6×20.3×15.2 cm) with a floor containing […] of wood chip bedding material. PTZ dose was determined to be ˜EC97 for producing clonic convulsions.

[4] = test system: electroshock-induced seizures; assay: Mouse electroshock-induced seizure model; format: in vivo; settings: mice
Description: This assay detects effects of compounds that produce generalized seizures and those that dampen seizure spread. Male, CD1 mice (Taconic Farms) were studied at weights of 21-32 g. Mice=10/dose) were used with Wahlquist Model H stimulator with 0.2 sec stimulation with corneal electrodes. […] Mice were euthanized immediately following the test. Tonic extension was used as the primary endpoint.
as §1

PTZ seizure threshold = assay: Pentylenetetrazole (PTZ, i.v.)-induced seizure threshold; format: in vivo, rats
Description: Male […] Sprague-Dawley rats (Indianapolis, Ind.) were randomly assigned to treatment groups and dosed with vehicle (vehicle=1% carboxymethyl cellulose) with diazepam (0.1, 0.3, or 1 mg/kg) or test compound (3, 10, 30, or 60 mg/kg) 30 minutes prior to testing. Rats were placed in a restrainer and a winged infusion needle was inserted into the lateral tail vein. Intravenous infusion with 10 mg/ml PTZ at a rate of 0.5 ml/min was initiated until a clonic convulsion occurred, and the time to clonic convulsion was recorded in sec or a maximum of 4 min was recorded. Following infusion, rats are euthanized. The dose of PTZ required to elicit a clonic convulsion was calculated using the infusion rate, concentration of PTZ, time to clonic convulsion, and animal weight.

[5] = MED producing maximal protection (0% seizures)

CCOC(=O)c1ncn2c1CN(C)C(=O)c1cc(F)ccc1-2 [Flumazenil, flumazenil]
effect on antinociceptive effects of KRM-II-81 ([1]; flumazenil pre-treatment before cumulative doses of KRM-II-81, CFA rats): dose-dependently attenuated

CCCC(CCC)C(=O)O [valproate, Valproic acid, reference compound]
motor impairment on inverted screen ([2]; 300 mg/kg, positive control): full motor impairment

CC(C)(C)OC(=O)c1cc2c(cn1)[nH]c1ccccc12 [BCCt, β-carboline-3-carboxylate-t-butyl ester]
percent maximal possible effect (MPE) of midazolam ([1]; midazolam 5.6 mg/kg after 7 days of repeated midazolam with BCCt (3.2 mg/kg) pretreatment twice a day): 92 % MPE

C#Cc1ccc2c(c1)C(c1ccccn1)=NCc1c(C(=O)OCC)ncn1-2 [HZ-166, ethyl 8-ethynyl-6-(pyridin-2-yl)-4H-benzo[f]imidazo[1,5-a][1,4]diazepine-3-carboxylate, reference compound]
muscle relaxation on inverted screen (result in words) ([2]; i.p., 30 min prior, KRM-II-81 10-60 mg/kg, HZ-166 30 mg/kg): Neither HZ-166 nor KRM-II-81 induced significant muscle relaxation | dose at which signs of muscle relaxation began to appear ([2]; i.p., inverted screen): 30 mg/kg | After-Discharge Duration to Criteria ([3]; MED for producing after-discharge duration ≤30 sec): >60 mg/kg | After-Discharge Threshold to Criteria ([3]; MED for producing after-discharge threshold ≥3): >60 mg/kg | Seizure Severity to Criteria ([3]; MED for producing seizure severity score ≤2): >60 mg/kg | After-Discharge Duration Potency (MED) ([3]; amygdala kindled rats): >60 mg/kg | After-Discharge Threshold Potency (MED) ([3]; amygdala kindled rats): >60 mg/kg | Seizure Severity Poteny (MED) ([3]; amygdala kindled rats): >60 mg/kg | Seizure free scores (seizure severity=0) ([3]; amygdala kindled rats, groups of 8): 0/8 | PTZ Clonus to Criteria 1 (PTZ-induced clonus; [5]): >30 mg/kg | PTZ Clonus Potency (MED) (PTZ-induced clonus; lowest dose with statistically significant protection, PTZ 35 mg/kg s.c.): >30 mg/kg | protection against PTZ-induced clonus (PTZ-induced clonus; PTZ 35 mg/kg s.c.): did not significantly separate from vehicle up to 30 mg/kg | Electroshock to Criteria [4, 5]: >30 mg/kg | Electroshock (minimal effective dose, MED) ([4]; lowest dose with statistically significant protection vs vehicle): 30 mg/kg | protection against electroshock-induced seizures [4]: not efficacious up to 30 mg/kg | PTZ Threshold to Criteria (PTZ seizure threshold; MED for producing ≥2× PTZ seizure threshold at baseline): >60 mg/kg | PTZ Threshold Poteny (MED) (PTZ seizure threshold; lowest dose with statistically significant effect, rats, PTZ i.v.): >60 mg/kg | effect on dose of PTZ required to induce convulsions (PTZ seizure threshold; rats, PTZ i.v. infusion, pretreatment 30 min): not active and displayed little protection up to 60 mg/kg

CCCOc1cc2c(cn1)[nH]c1ccccc12.Cl [3-PBC.HCl]
percent maximal possible effect of midazolam ([1]; midazolam 5.6 mg/kg after 7 days of repeated midazolam with 3PBC.HCl (5.6 mg/kg) pretreatment twice a day): 52 % MMPE

Cc1ncc2n1-c1ccc(Cl)cc1C(c1ccccc1F)=NC2 [midazolam]
percent maximal possible effect (MPE) of midazolam ([1]; midazolam 5.6 mg/kg after 7 days of repeated midazolam with saline pretreatment): 17 % MPE | percent maximal possible effect (MPE), attenuation of mechanical hyperalgesia ([1]; midazolam 5.6 mg/kg i.p., Day 0, prior to repeated treatment, CFA rats): 100 % MPE
